Where a name gives a salt, the structure may show the parent alone.
Assays:
Sarcocystis neurona = assay: Production of persistent parasitemia in a horse challenged with S. neurona (autologous leukocyte model); format: in vivo
Experimental: In a first preferred embodiment a parasite population was isolated from horses as described in an experimental model (Experimental infection of horses with culture derived Sarcocystis neurnoa merozoites as a model for equine protozoal myeloencephalitis, 2004) and used to infect a yearling thoroughbred filly. The challenge (6000 organisms/day) was used daily for 10 days. Concurrent with the challenge infection the filly was administered 1 mg/kg levamisole HCl orally for 21 days. […] Daily blood samples were taken and 5 microliters of blood were used to prepare thin layer smears followed by staining with Geimsa. Ten fields were counted to determine the presence of S. neurona. A hemocytometer was used to determine the number of parasites per ml of peripheral blood. […] At the end of fourteen days the filly was treated with decoquinate orally at 0.5 mg/kg for 10 days.

S. neurona = conditions: 1 mg/kg
Experimental: Field cases of idiopathic encephalitis associated with EPM due to S. neurona were identified by veterinary clinical examination. […] Signs were assessed by the Field Veterinarian by a neurological examination of gait and scored on a scale of 1-5. Attributable data was obtained from 27 Field Veterinarians. Thirty-three animals were included into the study, missing data from 21 horses prevented inclusion of these 21 animals into the study analysis. In the included data set, one Field Veterinarian submitted data for 6 animals, one Field Veterinarian submitted data from two animals, and 25 veterinarians submitted data for one animal.
Horses were evaluated for a change in gait score by subtracting the gait score after treatment from the gait score before treatment.

[1] = horses, 5 mg/kg (2800 mg) orally, at one hour; reportedly; cited from earlier work
[2] = Day 30, levamisole HCl 1 mg/kg orally 21 days, decoquinate 0.5 mg/kg orally 10 days from end of day 14
[3] = Day 14, 1 mg/kg orally for 21 days concurrent with challenge

Compound | visible parasites in the blood (Sarcocystis neurona; Day 30, decoquinate orally 0.5 mg/kg for 10 days from end of day 14, after levamisole HCl 1 mg/kg for 21 days) | clinical signs of disease (Sarcocystis neurona; [2]) | animals with gait score worse or not changed after treatment (S. neurona; 33 horses) [%] | horses with gait score improved by at least one grade after treatment (S. neurona; 33 horses with signs of EPM not resolved with conventional treatment) [%] | plasma level [1] [ng/mL] | parasitemia (Sarcocystis neurona; Day 10, in the serum, 1 mg/kg orally for 21 days concurrent with challenge) | clinical signs of disease (Sarcocystis neurona; Day 10, yearling filly, challenge 6000 organisms/day for 10 days, 1 mg/kg orally for 21 days) | clinical signs of disease (Sarcocystis neurona; [3]) | parasitemia (Sarcocystis neurona; [3])
CCCCCCCCCCOc1cc2c(O)c(C(=O)OCC)cnc2cc1OCC [decoquinate] | no visible parasites in the blood | no clinical signs of disease |  |  |  |  |  |  | 
c1ccc([C@H]2CN3CCSC3=N2)cc1 [levamisole HCl] |  | no clinical signs of disease | 18 | 82 | 485 | one million | no clinical signs | no clinical signs of disease | one million
